What was measured:
Format in all cases: cell-based
SMARCA2 [1] = target: T1, SMARCA2 (Homo sapiens, UniProt P51531); test: SMARCA2 Western blot degradation in MV4-11 cells; parameters: SMARCA2/SMARCA4 protein degradation selectivity in MV4-11 cells; endogenous in cells; host or cells: MV4-11; conditions: for Dmax: MV4-11, MV4-11 cells, read-out: SMARCA2 MSD MV411 degradation 24 h: average Dmax %; for Dmax / DC50: 24 h; for DC50 / Selectivity in MV411: MV4-11 cells; for DC50: read-out: SMARCA2 MSD MV411 degradation 24 h: Mean external-Abs DC50; for Selectivity in MV411: SMARCA2/4 selectivity
SMARCA4 = target: T2, SMARCA4 (Homo sapiens, UniProt P51532); test: SMARCA4 Western blot degradation in MV4-11 cells; conditions: for Dmax: MV4-11, MV4-11 cells, read-out: SMARCA4 MSD MV411 degradation 24 h: average Dmax %; for Dmax / DC50: 24 h; for DC50: read-out: SMARCA4 MSD MV411 degradation 24 h: Mean external-Abs DC50
T2 construct: SMARCA2/SMARCA4 protein degradation selectivity in MV4-11 cells; endogenous in cells; host or cells: MV4-11
Outline: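 Fluorescent LI-COR imaging of Western blots quantified SMARCA2 and SMARCA4 protein remaining in MV4-11 cells after 24 h of compound treatment. β-actin was the loading control, and DC50, Dmax and SMARCA2/4 selectivity are given as letter-coded ranges.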

SMARCA2 [2] = target: T1, SMARCA2; test: MSD SMARCA2 degradation in A549 cell line; conditions: 24 h; for Dmax: A549, A549 cells; for DC50: A549 cells, read-out: SMARCA2 MSD A549 degradation 24 h: Average external-Abs DC50
Outline: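 SMARCA2 protein remaining after 24 h exposure of A549 cells (top concentration 1000 nM, 3-fold dilutions) was measured by MSD electrochemiluminescence immunoassay of cell lysates. Results are given as binned DC50 and maximal degradation (Dmax) codes.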

T1 sequence (P51531 whole entry): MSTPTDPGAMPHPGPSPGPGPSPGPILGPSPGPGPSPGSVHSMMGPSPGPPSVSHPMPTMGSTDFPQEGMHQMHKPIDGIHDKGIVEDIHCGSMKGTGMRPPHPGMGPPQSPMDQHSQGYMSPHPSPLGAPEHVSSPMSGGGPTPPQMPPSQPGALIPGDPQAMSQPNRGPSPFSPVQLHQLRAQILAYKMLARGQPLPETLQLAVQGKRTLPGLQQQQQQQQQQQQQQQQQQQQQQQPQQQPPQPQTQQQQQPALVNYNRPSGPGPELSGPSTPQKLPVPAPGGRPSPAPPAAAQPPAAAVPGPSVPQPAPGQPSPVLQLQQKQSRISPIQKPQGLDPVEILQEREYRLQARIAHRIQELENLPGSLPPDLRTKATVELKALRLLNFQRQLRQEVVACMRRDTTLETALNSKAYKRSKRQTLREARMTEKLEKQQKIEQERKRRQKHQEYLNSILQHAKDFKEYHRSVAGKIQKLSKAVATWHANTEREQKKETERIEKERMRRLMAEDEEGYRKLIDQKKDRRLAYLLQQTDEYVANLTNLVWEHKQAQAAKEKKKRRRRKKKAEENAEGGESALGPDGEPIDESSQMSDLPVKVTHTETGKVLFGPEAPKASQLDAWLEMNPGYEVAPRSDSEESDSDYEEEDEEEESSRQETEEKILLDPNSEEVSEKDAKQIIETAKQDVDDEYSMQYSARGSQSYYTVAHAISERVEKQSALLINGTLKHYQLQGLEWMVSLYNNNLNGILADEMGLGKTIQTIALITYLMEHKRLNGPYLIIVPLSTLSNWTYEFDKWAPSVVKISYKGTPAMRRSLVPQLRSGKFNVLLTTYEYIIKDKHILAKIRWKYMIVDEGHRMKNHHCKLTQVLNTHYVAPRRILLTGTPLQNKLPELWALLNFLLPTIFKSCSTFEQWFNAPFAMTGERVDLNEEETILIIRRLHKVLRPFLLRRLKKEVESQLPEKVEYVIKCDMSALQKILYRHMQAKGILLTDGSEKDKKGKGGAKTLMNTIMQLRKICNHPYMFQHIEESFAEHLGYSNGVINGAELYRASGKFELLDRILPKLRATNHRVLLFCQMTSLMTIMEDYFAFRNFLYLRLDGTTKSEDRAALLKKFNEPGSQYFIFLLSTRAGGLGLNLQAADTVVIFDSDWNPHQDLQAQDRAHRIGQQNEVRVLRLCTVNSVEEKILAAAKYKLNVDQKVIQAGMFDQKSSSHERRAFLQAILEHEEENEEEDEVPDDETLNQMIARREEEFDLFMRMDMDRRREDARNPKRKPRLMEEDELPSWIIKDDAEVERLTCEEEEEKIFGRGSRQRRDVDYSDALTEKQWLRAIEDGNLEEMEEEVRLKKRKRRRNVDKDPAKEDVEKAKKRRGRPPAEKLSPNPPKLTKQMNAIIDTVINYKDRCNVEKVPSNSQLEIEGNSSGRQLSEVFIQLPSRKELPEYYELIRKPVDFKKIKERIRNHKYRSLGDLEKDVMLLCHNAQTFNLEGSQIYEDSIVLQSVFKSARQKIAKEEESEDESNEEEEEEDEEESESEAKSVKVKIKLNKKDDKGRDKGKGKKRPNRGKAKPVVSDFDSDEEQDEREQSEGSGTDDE
T2 sequence (P51532 whole entry): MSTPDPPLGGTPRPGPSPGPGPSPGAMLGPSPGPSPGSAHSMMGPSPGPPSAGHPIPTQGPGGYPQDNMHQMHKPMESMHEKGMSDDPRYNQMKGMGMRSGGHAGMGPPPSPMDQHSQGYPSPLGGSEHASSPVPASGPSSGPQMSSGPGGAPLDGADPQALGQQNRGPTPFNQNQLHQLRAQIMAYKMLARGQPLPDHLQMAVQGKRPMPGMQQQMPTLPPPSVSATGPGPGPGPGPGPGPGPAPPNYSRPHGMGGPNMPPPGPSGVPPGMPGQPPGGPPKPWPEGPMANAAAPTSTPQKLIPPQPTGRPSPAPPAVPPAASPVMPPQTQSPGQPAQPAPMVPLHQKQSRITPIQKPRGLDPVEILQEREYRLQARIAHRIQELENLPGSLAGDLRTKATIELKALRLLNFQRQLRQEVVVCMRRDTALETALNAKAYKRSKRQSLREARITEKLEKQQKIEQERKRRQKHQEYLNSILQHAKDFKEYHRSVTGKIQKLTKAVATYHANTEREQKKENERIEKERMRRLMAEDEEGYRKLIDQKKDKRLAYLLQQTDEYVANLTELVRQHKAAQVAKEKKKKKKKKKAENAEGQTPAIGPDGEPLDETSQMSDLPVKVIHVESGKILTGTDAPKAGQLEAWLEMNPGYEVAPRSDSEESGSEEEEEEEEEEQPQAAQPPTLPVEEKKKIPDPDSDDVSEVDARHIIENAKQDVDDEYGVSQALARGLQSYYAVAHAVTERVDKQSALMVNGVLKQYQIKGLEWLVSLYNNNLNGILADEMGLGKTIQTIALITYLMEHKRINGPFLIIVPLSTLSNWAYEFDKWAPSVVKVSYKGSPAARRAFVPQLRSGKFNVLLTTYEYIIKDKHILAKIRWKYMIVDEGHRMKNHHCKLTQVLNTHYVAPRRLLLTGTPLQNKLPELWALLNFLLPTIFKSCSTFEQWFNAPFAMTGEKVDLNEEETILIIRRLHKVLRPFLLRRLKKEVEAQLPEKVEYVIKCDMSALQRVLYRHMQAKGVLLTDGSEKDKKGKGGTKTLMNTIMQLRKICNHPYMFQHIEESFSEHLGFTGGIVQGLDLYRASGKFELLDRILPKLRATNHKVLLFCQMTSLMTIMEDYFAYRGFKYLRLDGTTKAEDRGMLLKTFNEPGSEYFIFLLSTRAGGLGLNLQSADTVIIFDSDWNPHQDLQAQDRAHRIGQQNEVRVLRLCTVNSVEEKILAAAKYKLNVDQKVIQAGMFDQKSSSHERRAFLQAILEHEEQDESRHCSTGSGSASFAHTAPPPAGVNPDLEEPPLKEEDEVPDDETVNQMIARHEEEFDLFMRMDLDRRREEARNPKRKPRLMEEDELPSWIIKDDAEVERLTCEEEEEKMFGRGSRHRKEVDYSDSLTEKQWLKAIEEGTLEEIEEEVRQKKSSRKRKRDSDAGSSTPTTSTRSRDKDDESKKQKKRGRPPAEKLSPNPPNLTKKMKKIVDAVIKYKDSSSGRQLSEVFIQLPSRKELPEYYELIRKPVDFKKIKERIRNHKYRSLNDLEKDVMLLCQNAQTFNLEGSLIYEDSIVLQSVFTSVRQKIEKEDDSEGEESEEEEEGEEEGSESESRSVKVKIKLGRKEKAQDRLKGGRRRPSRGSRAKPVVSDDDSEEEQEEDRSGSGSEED

| SMILES | Dmax (SMARCA2 [1]) [%] | DC50 (SMARCA2 [1]) [nM] | Selectivity in MV411 (SMARCA2 [1]) | Dmax (SMARCA4) [%] | DC50 (SMARCA4; MV4-11 cells) [nM] | Dmax (SMARCA2 [2]) [%] | DC50 (SMARCA2 [2]) [nM] | SMARCA4 MSD MV411 degradation 24 h: average Dmax % (SMARCA4; MV4-11 cells) |
| --- | --- | --- | --- | --- | --- | --- | --- | --- |
| C#Cc1ccc([C@H](C)NC(=O)[C@@H]2C[C@@H](O)CN2C(=O)C(c2cc(N3CCC(N4CCC(N5CCC(CN6CCN7c8cc(-c9ccccc9O)nnc8NC[C@H]7C6)CC5)CC4)CC3)no2)C(C)C)cc1 (some centres unmarked) [I-291] | > 90 | 1 to 10 | C (C (10-100 fold)) | > 90 | 10 to 100 | > 90 | 10 to 50 | – |
| C#Cc1ccc(CNC(=O)[C@@H]2C[C@@H](O)CN2C(=O)[C@@H](NC(=O)c2ccc(N3CCC(N4CCC(N5CCN6c7cc(-c8ccccc8O)nnc7NC[C@H]6C5)CC4)CC3)cn2)C(C)(C)C)cc1 [I-292] | > 90 | 1 to 10 | C (C (10-100 fold)) | > 90 | 10 to 100 | > 90 | < 10 | – |
| C#Cc1ccc(CNC(=O)[C@@H]2C[C@@H](O)CN2C(=O)[C@@H](NC(=O)[C@H]2CC[C@@H](CN3CCC(c4cnc(N5CCN6c7cc(-c8ccccc8O)nnc7NC[C@H]6C5)nc4)CC3)CC2)C(C)(C)C)cc1 [I-293] | 70 to 90 | 1 to 10 | B (B (>100-500 fold)) | 50 to 70 | > 100 | > 90 | 10 to 50 | – |
| C#Cc1ccc(CNC(=O)[C@@H]2C[C@@H](O)CN2C(=O)[C@@H](NC(=O)[C@H]2CC[C@H](CN3CCC(c4cnc(N5CCN6c7cc(-c8ccccc8O)nnc7NC[C@H]6C5)nc4)CC3)CC2)C(C)(C)C)cc1 [I-294] | > 90 | 1 to 10 | C (C (10-100 fold)) | 70 to 90 | 10 to 100 | > 90 | < 10 | – |
| C#Cc1ccc(CNC(=O)[C@@H]2C[C@@H](O)CN2C(=O)C(c2cc(OCCN3CCC(N4CCC(N5CCC(CN6CCN7c8cc(-c9ccccc9O)nnc8NC[C@H]7C6)CC5)CC4)CC3)no2)C(C)C)c(F)c1 (some centres unmarked) [I-296] | > 90 | 1 to 10 | C (C (10-100 fold)) | 70 to 90 | 10 to 100 | > 90 | 50 to 100 | – |
| C#Cc1ccc(CNC(=O)[C@@H]2C[C@@H](O)CN2C(=O)[C@@H](NC(=O)[C@H]2CC3(C2)C[C@H](c2cnc(N4CCC(N5CCN6c7cc(-c8ccccc8O)nnc7NC[C@H]6C5)CC4)nc2)C3)C(C)(C)C)cc1 (some centres unmarked) [I-302] | – | 1 to 10 | C (C (10-100 fold)) | – | 10 to 100 | – | 10 to 50 | – |
| C#Cc1cnc(CNC(=O)[C@@H]2C[C@@H](O)CN2C(=O)C(c2cc(OCCN3CCC(N4CCC(N5CCC(CN6CCN7c8cc(-c9ccccc9O)nnc8NC[C@H]7C6)CC5)CC4)CC3)no2)C(C)C)c(OC)c1 (some centres unmarked) [I-303] | 70 to 90 | 10 to 100 | B (B (>100-500 fold)) | < 50 | > 100 | > 90 | > 100 | – |
| C#Cc1ccc([C@@H](CO)NC(=O)[C@@H]2C[C@@H](O)CN2C(=O)[C@@H](NC(=O)N2CC3(CC(N4CCC(c5cnc(N6CCc7[nH]c8nnc(-c9ccccc9O)cc8c7[C@H]6C)nc5)CC4)C3)C2)C(C)(C)C)nc1 [I-305] | 50 to 70 | > 100 | D (D (<10 fold)) | < 50 | > 100 | 50 to 70 | > 100 | – |
| C#Cc1ccc(CNC(=O)[C@@H]2C[C@@H](O)CN2C(=O)[C@H](NC(=O)[C@H]2CCC3(CC2)C[C@H](N2CCN(c4cnc(N5CCN6c7cc(-c8ccccc8O)nnc7NC[C@H]6C5)nc4)CC2)C3)C(C)(C)CCO)c(Cl)c1 (some centres unmarked) [I-307] | – | – | D (D (<10 fold)) | – | > 100 | – | > 100 | D (D (<50% degradation)) |
| C#Cc1ccc(CNC(=O)[C@@H]2C[C@@H](O)CN2C(=O)[C@@H](NC(=O)N2CC3(CC(N4CCC(c5cnc(N6CCc7[nH]c8nnc(-c9ccccc9O)cc8c7[C@H]6C)nc5)CC4)C3)C2)C(C)(C)C)cc1Cl [I-309] | > 90 | 10 to 100 | C (C (10-100 fold)) | 70 to 90 | > 100 | > 90 | 10 to 50 | – |
| C#Cc1ccc(CNC(=O)[C@@H]2C[C@@H](O)CN2C(=O)[C@@H](NC(=O)N2CC3(CC(N4CCC(c5cnc(N6CCc7[nH]c8nnc(-c9ccccc9O)cc8c7[C@H]6C)nc5)CC4)C3)C2)C(C)(C)C)cc1F [I-310] | > 90 | 1 to 10 | C (C (10-100 fold)) | > 90 | > 100 | > 90 | 10 to 50 | – |
| C#Cc1ccc(CNC(=O)[C@@H]2C[C@@H](O)CN2C(=O)[C@@H](NC(=O)N2CC3(CC(N4CCC(c5cnc(N6CCc7[nH]c8nnc(-c9ccccc9O)cc8c7[C@H]6CO)nc5)CC4)C3)C2)C(C)(C)C)c(Cl)c1 [I-318] | 70 to 90 | 1 to 10 | C (C (10-100 fold)) | 70 to 90 | > 100 | > 90 | 10 to 50 | – |
| C#Cc1ccc(CNC(=O)[C@@H]2C[C@@H](O)CN2C(=O)[C@@H](NC(=O)N2CC3(CC(N4CCC(c5cnc(N6CCc7[nH]c8nnc(-c9ccccc9O)cc8c7[C@H]6C)nc5)CC4)C3)C2)C(C)(C)C)cc1OC [I-319] | 70 to 90 | 1 to 10 | B (B (>100-500 fold)) | 50 to 70 | > 100 | > 90 | 10 to 50 | – |
| C#Cc1ccc(CNC(=O)[C@@H]2C[C@@H](O)CN2C(=O)[C@@H](NC(=O)C2CC3(C2)CN(c2cnc(N4CCC(N5CCN6c7cc(-c8ccccc8O)nnc7NC[C@H]6C5)CC4)cn2)C3)C(C)(C)C)cc1 [I-320] | > 90 | 1 to 10 | C (C (10-100 fold)) | > 90 | 10 to 100 | > 90 | < 10 | – |
| C#Cc1ccc([C@H](C)NC(=O)[C@@H]2C[C@@H](O)CN2C(=O)[C@@H](NC(=O)N2CC3(CC(N4CCC(c5cnc(N6CCc7[nH]c8nnc(-c9ccccc9O)cc8c7[C@H]6CO)nc5)CC4)C3)C2)C(C)(C)C)cc1 [I-321] | 70 to 90 | 1 to 10 | A (A (>500 fold)) | < 50 | > 100 | > 90 | 10 to 50 | – |
| C#Cc1ccc(CNC(=O)[C@@H]2C[C@@H](O)CN2C(=O)[C@@H](NC(=O)N2CC3(CC(N4CCC(c5cnc(N6CCc7[nH]c8nnc(-c9ccccc9O)cc8c7[C@H]6C)s5)CC4)C3)C2)C(C)(C)C)cc1 [I-323] | 70 to 90 | 1 to 10 | C (C (10-100 fold)) | 50 to 70 | > 100 | > 90 | 10 to 50 | – |
| C#Cc1ccc([C@H](C)NC(=O)[C@@H]2C[C@@H](O)CN2C(=O)C(c2cc(N3CCC(CN4CCC(N5CCC(N6CCN7c8cc(-c9ccccc9O)nnc8NC[C@H]7C6)CC5)CC4)CC3)no2)C(C)C)c(Cl)c1 (some centres unmarked) [I-324] | < 50 | > 100 | C (C (10-100 fold)) | < 50 | > 100 | < 50 | > 100 | – |

From patent US20250170248A1, “SMARCA DEGRADERS AND USES THEREOF” (Kymera Therapeutics, Inc., priority 2021, published 2025)
